Measured values published in patent publication US9249135B2, “Therapeutic agent for mood disorders” (KYOWA HAKKO KIRIN CO., LTD., priority 2009, dated 2016).

Tests used:
rats [1] = assay: Learned helplessness model of depression in rats; assay type: in vivo, rat (male SD)
Text: From the effects of existing antidepressants and the like on this system, this test is deemed a higher level animal model in rodents.
The male SD rats (190 to 260 g; Charles River Japan Inc.) were used in this study. On Day 1 of experiment, a partition board was placed in the center of the shuttle box to create two compartments so that the animals could not move from one compartment to another (220×200×260 mm). In each compartment, one rat was placed. The animals were retained in the shuttle box for 50 minutes and exposed to electrical shocks (IES) given via stainless floor grids with the light on. […]
On Day 2 of experiment, the partition board in the center of the shuttle box was removed and replaced by a hurdle 2 cm in height to create two comportments so that the animals could move from one compartment to another. […] Animal's behavior was evaluated according to the following procedures.
FR1: A buzzer was activated for 10 seconds. […] This procedure counted as one trial, and was continuously repeated 15 times.
FR2: Electric stimuli (0.5 mA) were applied for 10 seconds to a rat via the floor grids in the compartment where the animal stayed. […] This procedure counted as one trial, and was continuously repeated 15 times. […]

mice = assay: Forced swim test in mice; assay type: in vivo, mouse (male ddY-strain)
Text: The forced swim test in rats and mice is widely used for test system which evaluates antidepressant activities (Arch. Int. Pharmacodyn. Ther. 229, p.327 (1977)). The forced swim test is means for evaluating depressive state using the length of time during which the animal ceases its escape behavior due to a sense of helplessness (immobility time) as an index thereof by placing a mouse or a rat in water in an inescapable cylinder. Since immobility time is shortened by existing antidepressants, this is known as an animal model of depression. The male ddY-strain mice (20 to 29 g; Japan SLC, Inc.) were used in this study. A transparent acrylic water bath 10 cm in diameter and 25 cm in height was filled with water at 23° C.±1° C. to a depth of 10 cm. Each mouse was slowly placed in the water bath. At 2 minutes after placement in the bath, immobility time (duration during which no escape behavior was observed) was measured for 4 minutes. The test compound was used for the test in suspension in distilled water for injection (manufactured by Otsuka Pharmaceutical Co.,) containing 0.5 w/v % MC (methylcellulose). […] The antidepressant activity of the test compound was evaluated with the immobility time for the vehicle control group and that for the test compound dose group as indexes. […]

rats [2] = assay: Forced swim test in rats; assay type: in vivo, rat (male SD-strain)
Text: The forced swim test in rats and mice is widely used for test system which evaluates antidepressant activities (Arch. Int. Pharmacodyn. Ther. 229, p.327 (1977)). The forced swim test is means for evaluating depressive state using the length of time during which the animal ceases its escape behavior due to a sense of helplessness (immobility time) as an index thereof by placing a mouse or a rat in water in an inescapable cylinder. Since immobility time is shortened by existing antidepressants, this is known as an animal model of depression. The male SD-strain rats (200 to 270 g; Charles River Japan Inc.) were used in this study. A transparent acrylic water bath 18 cm in diameter and 40 cm in height was filled with water at 25° C.±1° C. to a depth of 19 cm. Each rat was slowly placed in the water bath, allowed to stand for 15 minutes, then removed from the bath and dried with a piece of paper towel. The animals were then dried under a table light for 15 minutes and returned to the respective cages (induction of pathological condition). On the following day, the rats were slowly placed in the same water bath. Immediately, immobility time was measured for 5 minutes. […] The antidepressive action of the test compound was evaluated with the immobility time for the vehicle control group and that for the test compound dose group as indexes. […]

SMILES: Cc1ccc(C(=O)Nc2nc(-c3ccco3)c(C(=O)C3CCOCC3)s2)cn1 [(IC)]
- escape rate (escape response %) (rats [1]; rats with IES loading, FR2 session, dose of 0.3 mg/kg orally 1 hour before the FR1 session): 88.7±6.7%
- action on the escape rate reductions by IES loading in the FR2 session (rats [1]; rats, single oral dose, in words): significant ameliorating action
- immobility time (mice; mice, 0.1 mg/kg orally 1 hour before the test, measured for 4 minutes, vehicle 179.0 ± 15.2): 53.1 ± 11.0 s
- immobility time compared with that for the vehicle control group (mice; mouse, in words): shortened
- immobility time compared with that for the vehicle control group (rats [2]; rat, in words): shortened
- immobility time (rats [2]; rats, 0.1 mg/kg orally 1 hour before the test, measured for 5 minutes, vehicle 204.0 ± 21.0): 81.5 ± 15.1 s
